Columns and labels:
[1] = target: T1, TRPM2 (Mus musculus, UniProt Q91YD4); details: responses comparable to fMLP-stimulated TRPM2 KO PMN; cited from earlier work
T1 construct: endogenous in cells; host or cells: PMN (neutrophils), fMLP-stimulated; work retold from a cited abstract (J. Immunol. 2010, 184)

[2] = tested on: PMN (Neutrophil); details: cited from earlier work
[3] = target: T2, Nox4 (Homo sapiens, UniProt Q9NPH5); details: cited from earlier work
T2 construct: endogenous in cells; host or cells: pulmonary vascular wall cells under hypoxia
T2 sequence (Q9NPH5 1-578): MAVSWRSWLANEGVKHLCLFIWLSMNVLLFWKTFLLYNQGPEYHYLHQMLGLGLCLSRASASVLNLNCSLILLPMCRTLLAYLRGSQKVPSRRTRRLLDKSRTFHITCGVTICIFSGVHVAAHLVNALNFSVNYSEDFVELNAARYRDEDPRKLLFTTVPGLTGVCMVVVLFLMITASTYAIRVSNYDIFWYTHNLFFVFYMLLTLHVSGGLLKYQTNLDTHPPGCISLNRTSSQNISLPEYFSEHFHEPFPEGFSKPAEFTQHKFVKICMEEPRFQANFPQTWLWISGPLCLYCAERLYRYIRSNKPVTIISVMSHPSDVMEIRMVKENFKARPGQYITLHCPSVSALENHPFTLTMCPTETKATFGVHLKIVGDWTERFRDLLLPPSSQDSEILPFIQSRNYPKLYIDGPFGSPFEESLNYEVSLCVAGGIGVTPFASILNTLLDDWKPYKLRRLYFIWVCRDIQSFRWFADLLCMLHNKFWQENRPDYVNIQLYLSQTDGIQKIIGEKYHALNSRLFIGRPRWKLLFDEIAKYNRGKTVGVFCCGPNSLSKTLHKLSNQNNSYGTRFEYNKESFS
T2 sequence (P13498 1-195 partner): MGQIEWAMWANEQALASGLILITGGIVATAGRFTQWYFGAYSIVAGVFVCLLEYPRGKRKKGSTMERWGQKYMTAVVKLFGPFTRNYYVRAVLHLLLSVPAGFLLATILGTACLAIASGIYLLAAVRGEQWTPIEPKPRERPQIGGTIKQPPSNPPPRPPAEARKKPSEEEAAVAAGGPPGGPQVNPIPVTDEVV

[4] = tested on: polymicrobial sepsis; assay: Polymicrobial sepsis-induced lung injury; type: in vivo; details: H2 and/or NO treatment
Description: However until applicants' discovery, there has not been a successful combination of hydrogen gas with breathing gas using the claimed apparatus and methods. Applicants have discovered that NO's effect as an antioxidant may be enhanced by eliminating highly reactive by-products of NO inhalation such as peroxynitrite, by adding H2 to inhaled NO gas.

[5] = tested on: brain injury; details: inhaled, acute rat model; cited from earlier work
[6] = tested on: NF-κB; assay: LPS-induced pulmonary NF-κB activation; type: in vivo, mice; details: H2 and/or NO treatment
[7] = tested on: mice with intratracheal administration of LPS; assay: LPS-induced lung injury in mice (intratracheal LPS); type: in vivo; details: for lung injury after intratracheal LPS: 2% H2 and/or 20 ppm NO for 3 hours starting at 5 minutes or 3 hours after LPS; for pulmonary inflammation and cell apoptosis: H2 and/or NO treatment
[8] = tested on: CTGF; details: fibroblasts exposed to TGF-β; cited from earlier work
[9] = tested on: CTGF; details: infusion, scleroderma patients; cited from earlier work
[10] = tested on: Angiotensin II; details: cited from earlier work
[11] = tested on: neonatal piglets; details: short-term inhaled exposure; cited from earlier work
[12] = tested on: rats; details: inhaled; cited from earlier work
[13] = tested on: neonatal rats; details: cited from earlier work

T1 sequence (Q91YD4 whole entry): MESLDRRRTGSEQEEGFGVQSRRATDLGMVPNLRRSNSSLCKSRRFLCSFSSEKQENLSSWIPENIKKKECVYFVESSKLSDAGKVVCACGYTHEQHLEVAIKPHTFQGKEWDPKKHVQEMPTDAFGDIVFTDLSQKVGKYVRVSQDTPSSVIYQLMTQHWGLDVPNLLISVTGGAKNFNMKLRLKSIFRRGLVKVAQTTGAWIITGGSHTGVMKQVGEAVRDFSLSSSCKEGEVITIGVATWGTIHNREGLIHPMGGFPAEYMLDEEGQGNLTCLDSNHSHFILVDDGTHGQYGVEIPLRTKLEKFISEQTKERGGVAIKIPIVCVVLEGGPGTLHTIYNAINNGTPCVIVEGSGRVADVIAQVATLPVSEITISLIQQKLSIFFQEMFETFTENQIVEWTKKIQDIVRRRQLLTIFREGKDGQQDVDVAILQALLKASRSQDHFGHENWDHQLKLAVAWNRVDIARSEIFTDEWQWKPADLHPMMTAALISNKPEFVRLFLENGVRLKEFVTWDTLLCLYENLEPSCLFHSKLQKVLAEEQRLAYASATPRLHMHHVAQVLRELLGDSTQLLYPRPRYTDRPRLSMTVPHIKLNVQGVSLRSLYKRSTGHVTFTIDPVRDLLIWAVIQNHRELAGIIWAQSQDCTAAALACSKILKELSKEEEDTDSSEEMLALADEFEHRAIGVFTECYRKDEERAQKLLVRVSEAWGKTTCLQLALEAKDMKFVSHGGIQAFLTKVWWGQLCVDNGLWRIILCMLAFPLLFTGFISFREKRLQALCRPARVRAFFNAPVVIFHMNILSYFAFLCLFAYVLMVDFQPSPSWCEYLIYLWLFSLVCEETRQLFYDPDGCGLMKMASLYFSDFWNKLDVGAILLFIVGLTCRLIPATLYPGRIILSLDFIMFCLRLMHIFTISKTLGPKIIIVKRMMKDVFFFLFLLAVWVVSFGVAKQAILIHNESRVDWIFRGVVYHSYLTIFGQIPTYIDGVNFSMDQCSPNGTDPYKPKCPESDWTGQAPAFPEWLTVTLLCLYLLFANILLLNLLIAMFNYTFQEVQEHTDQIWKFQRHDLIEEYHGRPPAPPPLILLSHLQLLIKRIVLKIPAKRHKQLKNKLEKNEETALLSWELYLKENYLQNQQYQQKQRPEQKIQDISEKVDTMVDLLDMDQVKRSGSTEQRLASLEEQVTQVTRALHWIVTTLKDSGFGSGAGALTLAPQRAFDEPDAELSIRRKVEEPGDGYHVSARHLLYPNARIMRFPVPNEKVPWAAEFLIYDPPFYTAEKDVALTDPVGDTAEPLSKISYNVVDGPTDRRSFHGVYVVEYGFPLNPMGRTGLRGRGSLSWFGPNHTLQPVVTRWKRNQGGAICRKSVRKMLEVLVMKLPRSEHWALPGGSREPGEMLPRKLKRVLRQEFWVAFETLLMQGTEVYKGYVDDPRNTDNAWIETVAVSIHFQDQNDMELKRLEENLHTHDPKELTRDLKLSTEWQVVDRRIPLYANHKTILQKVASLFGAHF

Clc1ccc(COC(Cn2ccnc2)c2ccc(Cl)cc2Cl)cc1 (stereo not drawn) [Econazole]
Ca2+ influx [1]: blocked
PMN directionality [2]: significantly inhibited

O=C(O)c1ccccc1Nc1cccc(C(F)(F)F)c1 [FA]
Ca2+ influx [1]: blocked

CN(C)c1cccc(-c2c3c(=O)n(-c4ccccc4Cl)[nH]c3cc(=O)n2C)c1 [GKT137831]
hypoxia-induced pulmonary vascular cell proliferation [3]: attenuates

[HH] [H2, hydrogen]
lung injury in polymicrobial sepsis [4]: significantly attenuated
brain injury associated with focal ischemia-reperfusion [5]: markedly suppressed
LPS-induced pulmonary early and late NF-κB activation [6]: inhibited
lung injury after intratracheal LPS [7]: significantly improved
pulmonary inflammation and cell apoptosis [7]: down-regulated

CC#CCC(C)[C@H](O)/C=C/[C@@H]1[C@H]2C/C(=C/CCCC(=O)O)C[C@H]2C[C@H]1O (stereo partly drawn) [Iloprost]
increase in collagen synthesis [8]: blocks
induction of CTGF [8]: blocks
dermal CTGF levels [9]: marked decrease

CC(=O)N[C@@H](CS)C(=O)O [N-acetylcysteine]
Ang II-stimulated DNA synthesis, cell migration, pro-collagen α1(I) mRNA expression, secretion of TGF-β1 and inflammatory cytokines [10]: attenuated

[N]=O [NO, nitric oxide]
lung injury in polymicrobial sepsis [4]: significantly attenuated
lung collagen accumulation [11]: increases
survival in high O2 exposure [12]: increase
LPS-induced pulmonary early and late NF-κB activation [6]: inhibited
lung injury after intratracheal LPS [7]: significantly improved
pulmonary inflammation and cell apoptosis [7]: down-regulated

COC(=O)[C@@H](N)CCCNC(=N)N[N+](=O)[O-] [Nw-nitro-l-arginine methyl ester]
survival on exposure to >95% O2 compared with control rats [13]: significantly fewer survived

O=O [O2, oxygen]
lung collagen accumulation [11]: increases

Clc1ccccc1C(c1ccccc1)(c1ccccc1)n1ccnc1 [clotrimazole]
Ca2+ influx [1]: blocked
PMN directionality [2]: significantly inhibited

c1ccc2c(c1)[I+]c1ccccc1-2 [diphenylene iodonium]
Ang II-stimulated DNA synthesis, cell migration, pro-collagen α1(I) mRNA expression, secretion of TGF-β1 and inflammatory cytokines [10]: attenuated

— patent publication US20170182088A1, “METHOD AND APPARATUS FOR ADMINISTERING NITRIC OXIDE WITH SUPPLEMENTAL DRUGS” (GENO LLC, priority 2015, published 2017)
